Reference: patent publication US4894458A, “Quinolonecarboxylic acid derivatives and their preparation” (Kyorin Pharmaceutical Co., Ltd., priority 1986, dated 1990)
Converted amounts (≈) assume the structure as drawn. Read-outs that look alike come from different tables or passages of the source.

Experiments:
Type in all cases: cell-based
[1] = system: Bacillus subtilis PCI 219; experiment: In vitro antibacterial activity (aerobic bacteria), MIC; details: PCI219
[2] = system: Acinetobacter anitratus IID 876; experiment: as above; details: Acinetobacter calcoaceticus, IID876, Gram -, 10^6 cells/ml, read-out: MIC
Method: (§1) Minimal inhibitory concentrations (MICs) were determined in accordance with the method recommended by Japan Society of Chemotherapy.

E. coli ATCC 10536 = experiment: as above; details: Escherichia coli, ATCC10536, Gram -, 10^6 cells/ml
Method: as §1

K. pneumoniae 1-220S = experiment: as above; details: Klebsiella pneumoniae, 1220S, Gram -, 10^6 cells/ml
Method: as §1

[3] = system: Morganella morganii IID 602; experiment: as above; details: Morganella morganii, IID602, Gram -, 10^6 cells/ml, read-out: MIC
Method: as §1

P. mirabilis IID 994 = experiment: as above; details: Proteus mirabilis, IID994, Gram -, 10^6 cells/ml
Method: as §1

[4] = system: Proteus vulgaris IFO 3167; experiment: as above; details: IFO3167, Gram -, 10^6 cells/ml
Method: as §1

[5] = system: Pseudomonas aeruginosa V-1; experiment: as above; details: Pseudomonas aeruginosa, V1, aerobic; Gram -; 10^6 cells/ml; read-out: MIC
Method: as §1

[6] = system: S. aureus IID 670 (Terajima); experiment: as above; details: Staphylococcus aureus, IID670, Gram +, 10^6 cells/ml
Method: as §1

S. epidermidis IID 866 = experiment: as above; details: Staphylococcus epidermidis, IID866, Gram +, 10^6 cells/ml
Method: as §1

[7] = system: Serratia marcescens IID 618; experiment: as above; details: IID618, Gram -, 10^6 cells/ml
Method: as §1

Shigella sonnei IID 969 = experiment: as above; details: IID969, Gram -, 10^6 cells/ml
Method: as §1

[8] = system: Staphylococcus aureus 209 P; experiment: as above; details: Gram +, 10^6 cells/ml
Method: as §1

[9] = system: Escherichia coli NIHJ JC-2; experiment: as above; details: NIHJJC2, aerobic, Gram -, 10^6 cells/ml
[10] = system: Klebsiella pneumoniae KY(GN)6445; experiment: as above
[11] = system: Enterobacter cloacae IID 977; experiment: as above; details: IID977
[12] = system: Citrobacter freundii IID 976; experiment: as above; details: Citrobacter freundii
[13] = system: Salmonella enteritidis IID 604; experiment: as above; details: Salmonella enterica
P. aeruginosa IFO 12689 = experiment: as above; details: Pseudomonas aeruginosa, IFO12689
P. aeruginosa IID 1210 = experiment: as above; details: Pseudomonas aeruginosa, IID1210, aerobic; Gram -; 10^6 cells/ml
P. cepacia GIFU 518 = experiment: as above; details: Burkholderia cepacia, GIFU518, aerobic, Gram -, 10^6 cells/ml
P. maltophilia GIFU 2491 = experiment: as above; details: Stenotrophomonas maltophilia, GIFU2491
[14] = system: Yersinia enterocolitica IID 981; experiment: microbe, parasite or virus in culture; details: IID981
[15] = system: Alcaligenes faecalis 0114002; experiment: In vitro antibacterial activity (aerobic bacteria), MIC; details: Alcaligenes faecalis, 0114002, aerobic; Gram -; 10^6 cells/ml
[16] = system: Bacteroides fragilis GM 7000; experiment: In vitro antibacterial activity (anaerobic bacteria), MIC; details: GM7000
B. fragilis 0558 = experiment: as above; details: Bacteroides fragilis
B. fragilis 25285 = experiment: as above; details: Bacteroides fragilis
B. distasonis 8503 = experiment: as above; details: Parabacteroides distasonis, Gram -, 10^6 cells/ml
[17] = system: B. thetaiotaomicron (0661); experiment: as above; details: Bacteroides thetaiotaomicron
F. varium KYA 8501 = experiment: as above; details: Fusobacterium varium, KYA8501
[18] = system: Eubacterium lentum GAI 5242; experiment: as above; details: Eggerthella lenta, GAI5242
[19] = system: Propionibacterium acens 11828; experiment: as above
[20] = system: Peptococcus magnus KY 017; experiment: as above; details: Finegoldia magna, KY017, Gram +, 10^6 cells/ml, read-out: MIC
Method: as §1

[21] = system: Clostridium difficile I-E; experiment: as above; details: Clostridioides difficile
C. perfringens KYA 13123 = experiment: microbe, parasite or virus in culture; details: Clostridium perfringens, KYA13123
C. ramosum = experiment: In vitro antibacterial activity (anaerobic bacteria), MIC; details: Thomasclavelia ramosa, anaerobic, Gram +, 10^6 cells/ml
[22] = system: Peptostreptococcus anaerobius KYA 27337; experiment: as above
Pst micros UPI 5464-1 = experiment: microbe, parasite or virus in culture
[23] = system: Veillonella parvula KYA 10790; experiment: In vitro antibacterial activity (anaerobic bacteria), MIC; details: KYA10790
[24] = system: Fusobacterium necrophorum S-45; experiment: as above; details: S45, anaerobic, Gram -, 10^6 cells/ml, read-out: MIC
[25] = aerobic, Gram -, 10^6 cells/ml, read-out: MIC
[26] = anaerobic, Gram -, 10^6 cells/ml, read-out: MIC
[27] = anaerobic, Gram +, 10^6 cells/ml, read-out: MIC

Structure (SMILES) | MIC [1] | MIC [2] | MIC (E. coli ATCC 10536) | MIC (K. pneumoniae 1-220S) | MIC [3] | MIC (P. mirabilis IID 994) | MIC [4] | MIC [5] | MIC [6] | MIC (S. epidermidis IID 866) | MIC [7] | MIC (Shigella sonnei IID 969) | MIC [8] | MIC [9] | MIC [10] | MIC [11] | MIC [13] | MIC (P. aeruginosa IID 1210) | MIC [14] | MIC [15] | further results
Cc1c(N2C[C@@H](C)[C@@H](N)C2)c(F)cc2c(=O)c(C(=O)O)cn(C3CC3)c12 (relative stereo) [Ex. 28, 7-(3,4-cis-3-Amino-4-methyl-1-pyrrolidinyl)-1-cyclopropyl-6-fluoro-1,4-dihydro-8-methyl-4-oxo-3-quinolinecarboxylic acid] | 0.0125 mg/L (≈ 0.0348 µM) | 0.05 mg/L (≈ 0.139 µM) | 0.0063 mg/L (≈ 0.0175 µM) | 0.05 mg/L (≈ 0.139 µM) | 0.025 mg/L (≈ 0.0696 µM) | 0.025 mg/L (≈ 0.0696 µM) | 0.0063 mg/L (≈ 0.0175 µM) | 0.1 mg/L (≈ 0.278 µM) | 0.025 mg/L (≈ 0.0696 µM) | 0.05 mg/L (≈ 0.139 µM) | 0.05 mg/L (≈ 0.139 µM) | 0.0063 mg/L (≈ 0.0175 µM) | 0.025 mg/L (≈ 0.0696 µM) | 0.0063 mg/L (≈ 0.0175 µM) | 0.0125 mg/L (≈ 0.0348 µM) | 0.025 mg/L (≈ 0.0696 µM) | 0.025 mg/L (≈ 0.0696 µM) | 0.39 mg/L (≈ 1.09 µM) | 0.0125 mg/L (≈ 0.0348 µM) | 0.1 mg/L (≈ 0.278 µM) | MIC ([12]; IID976, aerobic, Gram -, 10^6 cells/ml): 0.0125 mg/L (≈ 0.0348 µM); MIC (P. aeruginosa IFO 12689): 0.39 mg/L (≈ 1.09 µM); MIC (P. cepacia GIFU 518): 0.39 mg/L (≈ 1.09 µM); MIC (P. maltophilia GIFU 2491): 0.1 mg/L (≈ 0.278 µM); MIC [16]: 0.2 mg/L (≈ 0.556 µM); MIC (B. fragilis 0558): 0.1 mg/L (≈ 0.278 µM); MIC (B. fragilis 25285): 0.1 mg/L (≈ 0.278 µM); MIC (B. distasonis 8503): 0.39 mg/L (≈ 1.09 µM); MIC [17]: 0.2 mg/L (≈ 0.556 µM); MIC (F. varium KYA 8501): 0.78 mg/L (≈ 2.17 µM); MIC [18]: 0.05 mg/L (≈ 0.139 µM); MIC [19]: 0.78 mg/L (≈ 2.17 µM); MIC [20]: 0.025 mg/L (≈ 0.0696 µM); MIC [21]: 0.39 mg/L (≈ 1.09 µM); MIC (C. perfringens KYA 13123): 0.1 mg/L (≈ 0.278 µM); MIC (C. ramosum): 0.78 mg/L (≈ 2.17 µM); MIC ([22]; KYA27337): 0.2 mg/L (≈ 0.556 µM); MIC (Pst micros UPI 5464-1): 0.05 mg/L (≈ 0.139 µM); MIC [23]: 0.1 mg/L (≈ 0.278 µM)
CCn1cc(C(=O)O)c(=O)c2cc(F)c(N3CCC(N)C3)c(C)c21 (stereo not shown) [Exp. 25, 7-(3-Amino-1-pyrrolidinyl)-1-ethyl-6-fluoro-1,4-dihydro-8-methyl-4-oxo-3-quinolinecarboxylic acid] | 0.1 mg/L (≈ 0.3 µM) | 0.78 mg/L (≈ 2.34 µM) | 0.025 mg/L (≈ 0.075 µM) | 0.1 mg/L (≈ 0.3 µM) | 0.2 mg/L (≈ 0.6 µM) | 0.05 mg/L (≈ 0.15 µM) | 0.0125 mg/L (≈ 0.0375 µM) | 0.39 mg/L (≈ 1.17 µM) | 0.2 mg/L (≈ 0.6 µM) | 0.2 mg/L (≈ 0.6 µM) | 0.05 mg/L (≈ 0.15 µM) | 0.05 mg/L (≈ 0.15 µM) | 0.2 mg/L (≈ 0.6 µM) | 0.0125 mg/L (≈ 0.0375 µM) | 0.1 mg/L (≈ 0.3 µM) | 0.1 mg/L (≈ 0.3 µM) | 0.05 mg/L (≈ 0.15 µM) | 0.78 mg/L (≈ 2.34 µM) | 0.1 mg/L (≈ 0.3 µM) | 0.78 mg/L (≈ 2.34 µM) | MIC ([12]; IID976): 0.05 mg/L (≈ 0.15 µM); MIC (P. aeruginosa IFO 12689; [25]): 1.56 mg/L (≈ 4.68 µM); MIC (P. cepacia GIFU 518; read-out: MIC): 1.56 mg/L (≈ 4.68 µM); MIC (P. maltophilia GIFU 2491; [25]): 1.56 mg/L (≈ 4.68 µM); MIC [16]: 3.13 mg/L (≈ 9.39 µM); MIC (B. fragilis 0558; [26]): 1.56 mg/L (≈ 4.68 µM); MIC (B. fragilis 25285; [26]): 1.56 mg/L (≈ 4.68 µM); MIC (B. distasonis 8503; read-out: MIC): 6.25 mg/L (≈ 18.7 µM); MIC [17, 26]: 6.25 mg/L (≈ 18.7 µM); MIC [24]: 1.56 mg/L (≈ 4.68 µM); MIC (F. varium KYA 8501; [26]): 6.25 mg/L (≈ 18.7 µM); MIC [18]: 0.78 mg/L (≈ 2.34 µM); MIC [19, 27]: 12.5 mg/L (≈ 37.5 µM); MIC [20]: 0.39 mg/L (≈ 1.17 µM); MIC [21, 27]: 6.25 mg/L (≈ 18.7 µM); MIC (C. perfringens KYA 13123): 0.78 mg/L (≈ 2.34 µM); MIC (C. ramosum; read-out: MIC): 12.5 mg/L (≈ 37.5 µM); MIC ([22]; KYA27337, anaerobic, Gram +, 10^6 cells/ml, read-out: MIC): 1.56 mg/L (≈ 4.68 µM); MIC (Pst micros UPI 5464-1; anaerobic, Gram +, 10^6 cells/ml): 0.39 mg/L (≈ 1.17 µM); MIC [23]: 0.39 mg/L (≈ 1.17 µM)
